Converted amounts (≈) assume the structure as drawn. Read-outs that look alike come from different tables or passages of the source. Blank lines part the entries; values can stand above or below the compound they belong to.
How the values were obtained:
mongrel dogs = experiment: Vasodilating activity in anesthetized mongrel dogs (coronary blood flow, blood pressure, heart rate after dosing into the vein); format: in vivo, dog (mongrel); details: for titer relative to dipyridamol: compared with currently employed dipyridamol; for Blood Pressure Duration / Blood Pressure Reduction / Coronary Blood Flow Duration / Coronary Blood Flow Increase / Heart Rate Reduction: i.v., dog
Method: 4 male mongrel dogs, weighing 15-25 Kg, were provided as laboratory animals and were anesthesized with sodium pentobarbital (30 mg/kg i.v.). Thereafter, the left circumflex coronary artery was exposed under artificial respiration and a probe of an electromagnetic flow meter was attached. A polyethylene cannula was inserted into the left femoral artery.
Test compounds were dissolved in a small amount of dimethyl sulfoxide and diluted with a sterilized physiological saline for injection, followed by dosing it into the vein.
Coronary blood was measured by means of the electromagnetic flow meter and the blood pressure was determined from the polyethylene cannule through a pressure transducer. Also, heart rate was measured by an instantaneous pulse meter from RR intervals of an electrocardiogram. Each parameter was recorded on a polygraph. Changes of these parameters prior to and after administration of each compound were observed.
In accordance with the procedure as used with SS 12538A, the vasodilating activity of SS 12538B was determined.
In the same manner as in the case of SS 12538A, the vasodilating activity of SS 12538C was determined with the results shown in Table 5.

[1] = system: Bacillus subtilis ATCC 6633; experiment: Antibacterial activity (MIC), Bacillus subtilis ATCC 6633; format: cell-based
Description: (§1) Minimum inhibitory concentration (MIC) of the physiologically active substance SS 12538A against various microorganisms are shown in FIG. 2.
(§2) Minimum inhibitory concentration (MIC) of the physiologically active substance SS 12538B against various microorganisms are shown in Table 4 below.
(§3) Minimum inhibitory concentration (MIC) of the physiologically active substance SS 12538C against various microorganisms are shown in Table 6 below.

Bacillus cereus IID 871 = experiment: Antibacterial activity (MIC), Bacillus cereus IID 871; format: cell-based
Description: as §1, §2, §3

[2] = system: Micrococcus lysodeikticus IFO 3333; experiment: Antibacterial activity (MIC), Micrococcus lysodeikticus IFO 3333; format: cell-based; details: Micrococcus luteus
Description: as §1, §2, §3

[3] = system: Staphylococcus aureus ATCC 6538P; experiment: Antibacterial activity (MIC), Staphylococcus aureus ATCC 6538P; format: cell-based; details: ATCC6538P, read-out: Minimum Inhibitory Concentration MIC
Description: as §1, §2, §3

[4] = system: Staphylococcus epidermidis ATCC 12228; experiment: Antibacterial activity (MIC), Staphylococcus epidermidis ATCC 12228; format: cell-based
Description: as §1, §2, §3

Escherichia coli 0-1 = experiment: Antibacterial activity (MIC), Escherichia coli 0-1; format: cell-based
Description: as §1, §2, §3

[5] = system: Klebsiella pneumoniae ATCC 10031; experiment: Antibacterial activity (MIC), Klebsiella pneumoniae ATCC 10031; format: cell-based
Description: as §1, §2, §3

[6] = system: Pseudomonas aeruginosa IFO 13736; experiment: Antibacterial activity (MIC), Pseudomonas aeruginosa IFO 13736; format: cell-based
Description: as §1, §2, §3

[7] = system: Candida albicans ATCC 10231; experiment: Antifungal activity (MIC), Candida albicans ATCC 10231; format: cell-based
Description: as §1, §2, §3

[8] = system: Saccharomyces cerevisiae ATCC 9763; experiment: Antifungal activity (MIC), Saccharomyces cerevisiae ATCC 9763; format: cell-based
Description: as §1, §2, §3

[9] = system: Aspergillus niger ATCC 9642; experiment: Antifungal activity (MIC), Aspergillus niger ATCC 9642; format: cell-based
Description: as §1, §2, §3

[10] = system: Trichophyton mentagrophytes QM 248; experiment: Antifungal activity (MIC), Trichophyton mentagrophytes QM 248; format: cell-based
Description: as §1, §2, §3

[11] = system: Microsporum gypseum IFO 8231; experiment: Antifungal activity (MIC), Microsporum gypseum IFO 8231; format: cell-based; details: Nannizzia gypsea
Description: as §1, §2, §3

Solubilities in solvents = format: physicochemical; details: for Solubility in organic solvents: chloroform, ethyl acetate, acetone, ethyl ether, ethanol, methanol, pyridine, benzene and dimethyl sulfoxide
[12] = ATCC6633, Bacillus subtilis ATCC 6633, read-out: Minimum Inhibitory Concentration MIC
[13] = IID871, Bacillus cereus IID 871, read-out: Minimum Inhibitory Concentration MIC
[14] = IFO3333, Micrococcus lysodeikticus IFO 3333, read-out: Minimum Inhibitory Concentration MIC
[15] = Staphylococcus aureus ATCC 6538P
[16] = ATCC12228, Staphylococcus epidermidis ATCC 12228, read-out: Minimum Inhibitory Concentration MIC
[17] = 01, Escherichia coli 0-1, read-out: Minimum Inhibitory Concentration MIC
[18] = ATCC10031, Klebsiella pneumoniae ATCC 10031, read-out: Minimum Inhibitory Concentration MIC
[19] = IFO13736, Pseudomonas aeruginosa IFO 13736, read-out: Minimum Inhibitory Concentration MIC
[20] = ATCC10231, Candida albicans ATCC 10231, read-out: Minimum Inhibitory Concentration MIC
[21] = ATCC9763, Saccharomyces cerevisiae ATCC 9763, read-out: Minimum Inhibitory Concentration MIC
[22] = ATCC9642, Aspergillus niger ATCC 9642, read-out: Minimum Inhibitory Concentration MIC
[23] = QM248, Trichophyton mentagrophytes QM 248, read-out: Minimum Inhibitory Concentration MIC
[24] = IFO8231, Microsporum gypseum IFO 8231, read-out: Minimum Inhibitory Concentration MIC

MIC [1, 12]: 50 µg/mL (≈ 129 µM) | MIC (Bacillus cereus IID 871; [13]): 50 µg/mL (≈ 129 µM) | MIC [2, 14]: 25 µg/mL (≈ 64.7 µM) | MIC [3, 15]: 25 µg/mL (≈ 64.7 µM) | MIC [4, 16]: 25 µg/mL (≈ 64.7 µM) | MIC (Escherichia coli 0-1; [17]): > 100 µg/mL | MIC [5, 18]: > 100 µg/mL | MIC [6, 19]: > 100 µg/mL | MIC [7, 20]: > 100 µg/mL | MIC [8, 21]: > 100 µg/mL | MIC [9, 22]: > 100 µg/mL | MIC [10, 23]: 25 µg/mL (≈ 64.7 µM) | MIC [11, 24]: 100 µg/mL (≈ 259 µM) | Solubility in organic solvents (Solubilities in solvents): Soluble | Solubility in water (Solubilities in solvents): sparingly soluble
Structure (SMILES): CC=C(C)C(O)C(C)C=C(C)C=CCC(C)=CCc1oc(OC)cc(=O)c1C (stereo not drawn) [SS 12538B]
titer relative to dipyridamol (mongrel dogs): about 30 times | Blood Pressure Duration (mongrel dogs; dose 3 μg/kg): 6 min | Blood Pressure Reduction (mongrel dogs; dose 3 μg/kg): 7.5% | Coronary Blood Flow Duration (mongrel dogs; dose 3 μg/kg): 10 min | Coronary Blood Flow Increase (mongrel dogs; dose 3 μg/kg): 103.3% | Heart Rate Reduction (mongrel dogs; dose 3 μg/kg): 2.0% | Blood Pressure Duration (mongrel dogs; dose 10 μg/kg): 20 min | Blood Pressure Reduction (mongrel dogs; dose 10 μg/kg): 27.7% | Coronary Blood Flow Duration (mongrel dogs; dose 10 μg/kg): 15 min | Coronary Blood Flow Increase (mongrel dogs; dose 10 μg/kg): 143.8% | Heart Rate Reduction (mongrel dogs; dose 10 μg/kg): 13.0%

Structure (SMILES): OCCN(CCO)c1nc(N2CCCCC2)c2nc(N(CCO)CCO)nc(N3CCCCC3)c2n1 [Dipyridamol, dipyridamol, reference compound]
Blood Pressure Duration (mongrel dogs; dose 300 μg/kg): 16 min | Blood Pressure Reduction (mongrel dogs; dose 300 μg/kg): 13.2% | Coronary Blood Flow Duration (mongrel dogs; dose 300 μg/kg): 20 min | Coronary Blood Flow Increase (mongrel dogs; dose 300 μg/kg): 135.7% | Heart Rate Reduction (mongrel dogs; dose 300 μg/kg): 0%

MIC [1, 12]: > 100 µg/mL | MIC (Bacillus cereus IID 871; [13]): 12.5 µg/mL (≈ 31.2 µM) | MIC [2, 14]: 25 µg/mL (≈ 62.4 µM) | MIC [3, 15]: > 100 µg/mL | MIC [4, 16]: < 6.25 µg/mL | MIC (Escherichia coli 0-1; [17]): > 100 µg/mL | MIC [5, 18]: > 100 µg/mL | MIC [6, 19]: > 100 µg/mL | MIC [7, 20]: > 100 µg/mL | MIC [8, 21]: > 100 µg/mL | MIC [9, 22]: > 100 µg/mL | MIC [10, 23]: > 100 µg/mL | MIC [11, 24]: < 6.25 µg/mL | Solubility in organic solvents (Solubilities in solvents): Soluble | Solubility in water (Solubilities in solvents): sparingly soluble
Structure (SMILES): CC=C(C)C(O)C(C)C=C(C)C=CCC(C)=CCc1oc(OC)c(C)c(=O)c1C (stereo not drawn) [SS 12538A]
titer relative to dipyridamol (mongrel dogs): about 30 times | Blood Pressure Duration (mongrel dogs; dose 3 μg/kg): 7 min | Blood Pressure Reduction (mongrel dogs; dose 3 μg/kg): 4.9% | Coronary Blood Flow Duration (mongrel dogs; dose 3 μg/kg): 10 min | Coronary Blood Flow Increase (mongrel dogs; dose 3 μg/kg): 17.1% | Heart Rate Reduction (mongrel dogs; dose 3 μg/kg): 2.3% | Blood Pressure Duration (mongrel dogs; dose 10 μg/kg): 10 min | Blood Pressure Reduction (mongrel dogs; dose 10 μg/kg): 12.6% | Coronary Blood Flow Duration (mongrel dogs; dose 10 μg/kg): 20 min | Coronary Blood Flow Increase (mongrel dogs; dose 10 μg/kg): 168.6% | Heart Rate Reduction (mongrel dogs; dose 10 μg/kg): 2.9% | Blood Pressure Duration (mongrel dogs; dose 30 μg/kg): 30 min | Blood Pressure Reduction (mongrel dogs; dose 30 μg/kg): 28.7% | Coronary Blood Flow Duration (mongrel dogs; dose 30 μg/kg): 40 min | Coronary Blood Flow Increase (mongrel dogs; dose 30 μg/kg): 441.3% | Heart Rate Reduction (mongrel dogs; dose 30 μg/kg): 1.8%

Structure (SMILES): CC=C(C)C(O)C(C)C=C(C)C=CCC(C)=CCc1oc(OC)c(CC)c(=O)c1C (stereo not drawn) [SS 12538C]
titer relative to dipyridamol (mongrel dogs): about 3 times | Blood Pressure Duration (mongrel dogs; dose 10 μg/kg): 0 min | Blood Pressure Reduction (mongrel dogs; dose 10 μg/kg): 0% | Coronary Blood Flow Duration (mongrel dogs; dose 10 μg/kg): 5 min | Coronary Blood Flow Increase (mongrel dogs; dose 10 μg/kg): 30.0% | Heart Rate Reduction (mongrel dogs; dose 10 μg/kg): 0% | Blood Pressure Duration (mongrel dogs; dose 30 μg/kg): 10 min | Blood Pressure Reduction (mongrel dogs; dose 30 μg/kg): 2.9% | Coronary Blood Flow Duration (mongrel dogs; dose 30 μg/kg): 10 min | Coronary Blood Flow Increase (mongrel dogs; dose 30 μg/kg): 60.0% | Heart Rate Reduction (mongrel dogs; dose 30 μg/kg): 0% | Blood Pressure Duration (mongrel dogs; dose 100 μg/kg): 15 min | Blood Pressure Reduction (mongrel dogs; dose 100 μg/kg): 8.5% | Coronary Blood Flow Duration (mongrel dogs; dose 100 μg/kg): 15 min | Coronary Blood Flow Increase (mongrel dogs; dose 100 μg/kg): 130.0% | Heart Rate Reduction (mongrel dogs; dose 100 μg/kg): 10.1% | MIC ([1]; Bacillus subtilis, ATCC6633, read-out: Minimum Inhibitory Concentration MIC): > 100 µg/mL | MIC (Bacillus cereus IID 871; Bacillus cereus, IID871, read-out: Minimum Inhibitory Concentration MIC): 25 µg/mL (≈ 60.3 µM) | MIC ([2]; IFO3333, read-out: Minimum Inhibitory Concentration MIC): 12.5 µg/mL (≈ 30.2 µM) | MIC ([3]; Staphylococcus aureus): 100 µg/mL (≈ 241 µM) | MIC ([4]; Staphylococcus epidermidis, ATCC12228, read-out: Minimum Inhibitory Concentration MIC): 25 µg/mL (≈ 60.3 µM) | MIC (Escherichia coli 0-1; Escherichia coli, 01, read-out: Minimum Inhibitory Concentration MIC): > 100 µg/mL | MIC ([5]; Klebsiella pneumoniae, ATCC10031, read-out: Minimum Inhibitory Concentration MIC): > 100 µg/mL | MIC ([6]; Pseudomonas aeruginosa, IFO13736, read-out: Minimum Inhibitory Concentration MIC): > 100 µg/mL | MIC ([7]; Candida albicans, ATCC10231, read-out: Minimum Inhibitory Concentration MIC): > 100 µg/mL | MIC ([8]; Saccharomyces cerevisiae, ATCC9763, read-out: Minimum Inhibitory Concentration MIC): > 100 µg/mL | MIC ([9]; Aspergillus niger, ATCC9642, read-out: Minimum Inhibitory Concentration MIC): > 100 µg/mL | MIC ([10]; Trichophyton mentagrophytes, QM248, read-out: Minimum Inhibitory Concentration MIC): 50 µg/mL (≈ 121 µM) | MIC ([11]; IFO8231, read-out: Minimum Inhibitory Concentration MIC): > 100 µg/mL | Solubility in organic solvents (Solubilities in solvents): Soluble | Solubility in water (Solubilities in solvents): sparingly soluble
